# Test results reported in US20240197664A1, “SIRTUIN OR KLOTHO ACTIVATOR OR EXPRESSION ENHANCER, NAD+ INCREASING AGENT, AND SENOLYTIC AGENT” (WAKUNAGA PHARMACEUTICAL CO., LTD., priority 2021, published 2024).
# What was measured:
# p16 gene = test: Suppression of senescent cell marker p16 gene expression in the kidney (in vivo), real-time PCR; set-up: species or system senescence-accelerated mice SAMP8; details: repeated oral administration for two weeks
# Source text: (§1) Animals for evaluating the biological activity were bred as follows. Senescence-accelerated mice SAMP8 (male) for testing were purchased from Japan SLC, Inc. After purchase, the animals were acclimatized for one week and used as animals for the evaluation tests.
# (§2) After repeated oral administration of the sample prepared in the above (1) (a) to the animals for the evaluation tests in the above (2) for two weeks, kidneys of such animals were excised. The kidneys were crushed using an automatic tissue crusher, and then RNA was extracted using a TRIzol solution manufactured by Thermo Fisher Scientific K.K.
# (§3) CDNA was synthesized using PRIMEScript RT reagent Kit with gEraser manufactured by Takara. The synthesized cDNA was subjected to real-time PCR using KAPA SYBR Fast qPCR kit manufactured by Nippon Genetics Co., Ltd. Results are shown in FIG. 6.
# [1] = system: senescence-accelerated mice SAMP8; test: Cognitive/memory retention action (in vivo), passive avoidance test; details: mixed with food for four months, holding trial after two months
# Protocol: as §1
# The sample prepared in the above (1) (a) was mixed with food and fed to animals for evaluation test in the above (2) for four months, and then a passive avoidance test was performed. The passive avoidance test is a test utilizing a habit that a mouse prefers a dark place, and on Day 1, a mouse already in a bright room was moved to a dark room while receiving an electrical shock (50 V/1 second), and the time it took for the mouse to enter the dark room was taken as response latency of an acquisition trial. After two months, the mouse was put in the bright room again and the time it took to move to the dark room (the response latency of a holding trial) was used as an index of memory.
# p53 protein = test: Suppression of cellular senescence marker p53 protein in the hippocampus (in vivo), Western Blotting; set-up: species or system senescence-accelerated mice SAMP8; details: repeated oral administration for six weeks
# Source text: as §1
# (§4) After repeated oral administration of the sample prepared in the above (1) (a) to animals for the evaluation tests in the above (2) for six weeks, hippocampi of such animals were excised. After the hippocampi were crushed using an automatic tissue crusher, the cells were lysed with a RIPA cell lysis buffer manufactured by Millipore Corporation which was diluted 10-fold with purified water added with a protease inhibitor and a phosphatase inhibitor manufactured by Roche, and then centrifuged (10,000 rpm, 10 min, 4° C.), and the supernatant was used as a cell extract. The cell extract was used for analysis by Western Blotting according to a conventional method. An anti-p53 antibody (manufactured by Proteintech Group, Inc.) and an anti-β-actin antibody (manufactured by Medical and Biological Laboratories Co., Ltd.) were used as antibodies.
# p21 gene = test: Suppression of senescent cell marker p21 gene expression in the kidney (in vivo), real-time PCR; set-up: species or system senescence-accelerated mice SAMP8; details: repeated oral administration for two weeks
# Source text: as §1, §2, §3
# [2] = system: kidney injury molecule (KIM-1); test: Inhibitory action on kidney injuries (in vivo), KIM-1 Western Blotting; set-up: species or system senescence-accelerated mice SAMP8; details: repeated oral administration for two weeks
# Source text: as §1
# (§5) After repeated oral administration of the sample prepared in the above (1) (a) to the animals for the evaluation tests in the above (2) for two weeks, kidneys of such animals were excised. After the kidneys were crushed using an automatic tissue crusher, the cells were lysed with an RIPA cell lysis buffer manufactured by Millipore Corporation which was diluted 10-fold with purified water added with a protease inhibitor and a phosphatase inhibitor manufactured by Roche and then centrifuged (10,000 rpm, 10 min, 4° C.), and the supernatant was used as a cell extract. The cell extract was used for analysis by Western Blotting according to a conventional method. A kidney injury molecule (KIM-1) antibody (manufactured by R&D System) and a lipocalin-2 (NGAL) antibody (manufactured by Proteintech Group, Inc.), KIM-1 and NGAL being markers of kidney injuries, and an anti-GAPDH antibody (manufactured by Fujifilm Wako Pure Chemical Corporation) were used as antibodies.
# lipocalin-2 (NGAL) = test: Inhibitory action on kidney injuries (in vivo), NGAL Western Blotting; set-up: species or system senescence-accelerated mice SAMP8; details: repeated oral administration for two weeks
# Source text: as §1, §5
# Klotho gene = test: Enhancement of Klotho gene expression in the kidney (in vivo), real-time PCR; set-up: species or system senescence-accelerated mice SAMP8; details: repeated oral administration for two weeks
# Source text: as §1
# as §2, with “K.K. cDNA was synthesized using PRIMEScript RT reagent Kit with gEraser manufactured by Takara. The synthesized cDNA was subjected to real-time PCR using KAPA SYBR Fast qPCR kit manufactured by Nippon Genetics Co., Ltd. Results are shown in FIG. 5.” for “K.K.”
# SIRT1 protein = SIRT1 protein increasing action (in vivo), Western Blotting of hippocampus; set-up: species or system senescence-accelerated mice SAMP8; details: repeated oral administration for two weeks
# Source text: as §1
# as §4, with “two” for “six”, “combined protease/phosphatase inhibitors” for “a protease inhibitor and a phosphatase inhibitor”, “Thermo Fisher Scientific K.K.,” for “Roche,”, “anti-SIRT1” for “anti-p53”, “Biolegend)” for “Proteintech Group, Inc.)”, “Fujifilm Wako Pure Chemical Corporation)” for “Medical and Biological Laboratories Co., Ltd.)”
# SIRT1 gene = test: Enhancement of SIRT1 gene expression in the kidney (in vivo), real-time PCR; set-up: species or system senescence-accelerated mice SAMP8; details: repeated oral administration for two weeks
# Source text: as §1
# as §2, with “K.K. cDNA was synthesized using PRIMEScript RT reagent Kit with gEraser manufactured by Takara. The synthesized cDNA was subjected to real-time PCR using KAPA SYBR Fast qPCR kit manufactured by Nippon Genetics Co., Ltd. Results are shown in FIG. 5.” for “K.K.”
# NAD+ = NAD+ amount increasing action (in vivo), NAD+/NADH Assay Kit; set-up: species or system senescence-accelerated mice SAMP8; details: single oral dose (180 minutes later) and mixed with food for one month; cerebral cortices
# Protocol: as §1
# A single dose of the sample prepared in (1) (a) was orally administered to animals for the evaluation tests in the above (2), and then cerebral cortices of such animals were excised 180 minutes later. In addition, the sample prepared in the above (1) (a) was mixed with food and fed to animals for the evaluation tests in the above (2) for one month, and then cerebral cortices of such animals were excised. The NAD^+ amount in the cerebral cortices was measured using NAD^+/NADH Assay Kit manufactured by Dojindo Laboratories.
# SIRT1 = target: T1, SIRT1 (Mus musculus, UniProt Q923E4); test: SIRT1 activation action (in vivo), SIRT1_GLO kit on cerebral cortex lysate; set-up: species or system senescence-accelerated mice SAMP8; details: single oral dose, 180 minutes after administration, vs control group
# T1 construct: from tissue; host or cells: cerebral cortex of SAMP8 mice
# T1 sequence (Q923E4 1-737): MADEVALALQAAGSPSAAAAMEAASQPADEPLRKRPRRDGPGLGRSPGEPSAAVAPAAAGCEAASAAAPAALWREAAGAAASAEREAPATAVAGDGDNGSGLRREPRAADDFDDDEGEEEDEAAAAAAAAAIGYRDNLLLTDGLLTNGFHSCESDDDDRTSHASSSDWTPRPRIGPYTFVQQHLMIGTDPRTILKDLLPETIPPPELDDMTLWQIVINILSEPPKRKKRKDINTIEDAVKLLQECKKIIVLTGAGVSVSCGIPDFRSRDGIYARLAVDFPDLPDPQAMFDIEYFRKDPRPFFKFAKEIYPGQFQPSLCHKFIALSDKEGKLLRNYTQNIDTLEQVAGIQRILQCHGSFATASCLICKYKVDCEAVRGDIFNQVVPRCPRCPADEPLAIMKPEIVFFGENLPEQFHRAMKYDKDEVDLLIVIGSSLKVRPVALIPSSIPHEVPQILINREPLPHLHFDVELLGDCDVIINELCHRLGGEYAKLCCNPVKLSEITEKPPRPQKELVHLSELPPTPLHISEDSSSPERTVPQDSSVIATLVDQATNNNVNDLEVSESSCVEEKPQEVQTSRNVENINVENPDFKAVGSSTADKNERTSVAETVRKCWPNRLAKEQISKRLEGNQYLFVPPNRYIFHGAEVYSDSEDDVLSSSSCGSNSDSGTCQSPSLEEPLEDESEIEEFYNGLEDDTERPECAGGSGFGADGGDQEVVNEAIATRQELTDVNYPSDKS
# Protocol: as §1
# A SIRT1_GLO kit manufactured by Promega Corporation was purchased to measure the sirtuins activity. A lysate of the cerebral cortex was placed in a 96-well plate, various reaction reagents were added, and then luminous intensity of luciferase was measured by a plate reader.
# A single dose of the sample prepared in the above (1) (a) was orally administrated to animals for the evaluation tests in the above (2), and then cerebral cortices of such animals were extracted 15, 30, 60, and 180 minutes later. The cerebral cortices were crushed using an automatic tissue crusher and lysed by adding a cell dissolution liquid. Centrifugation was performed and the sirtuins activity in the supernatant thereof was measured.
structure (smiles),measurement,setting,value
CC=CSCC(N)C(=O)O (centres unmarked) [S-1-propenylcysteine],cells expressing p16 gene in the kidneys,p16 gene,reduced
same,aging-related decline in cognitive and memory functions (response latency of holding trial),[1],ameliorated
same,p53 protein mass in the hippocampus,p53 protein,reduced
same,cells expressing p21 gene in the kidneys,p21 gene,reduced
same,KIM-1 protein mass in the kidney,[2],reduced
same,NGAL protein mass in the kidney,lipocalin-2 (NGAL),reduced
same,expression of Klotho gene in the kidney,Klotho gene,increased
same,SIRT1 protein mass in the hippocampus,SIRT1 protein,increased
same,expression of SIRT1 gene in the kidney,SIRT1 gene,increased
same,NAD+ amount,NAD+,increased
same,Sirtuin activity in cerebral cortex,SIRT1,increased
